Experimental data as given in ChEMBL document CHEMBL5154936, “Scaffold Hopping Strategy to Identify Prostanoid EP4 Receptor Antagonists for Cancer Immunotherapy” (J Med Chem, 2022).

Key:
[1] = target: Prostaglandin E2 receptor EP4 subtype (Homo sapiens, UniProt P35408); test: Antagonist activity at human EP4 receptor transfected in CHO/Galpha16 cells preincubated for 15 mins followed by PGE2 addition by calcium flux assay; assay type: functional, cell-based
[2] = target: Prostaglandin E2 receptor EP4 subtype (Mus musculus, UniProt P32240); test: Antagonist activity at mouse EP4 receptor transfected in CHO/Galpha16 cells preincubated for 15 mins followed by PGE2 addition by calcium flux assay; assay type: functional, cell-based
Chain of Prostaglandin E2 receptor EP4 subtype (Mus musculus, UniProt P32240) (P32240 whole entry): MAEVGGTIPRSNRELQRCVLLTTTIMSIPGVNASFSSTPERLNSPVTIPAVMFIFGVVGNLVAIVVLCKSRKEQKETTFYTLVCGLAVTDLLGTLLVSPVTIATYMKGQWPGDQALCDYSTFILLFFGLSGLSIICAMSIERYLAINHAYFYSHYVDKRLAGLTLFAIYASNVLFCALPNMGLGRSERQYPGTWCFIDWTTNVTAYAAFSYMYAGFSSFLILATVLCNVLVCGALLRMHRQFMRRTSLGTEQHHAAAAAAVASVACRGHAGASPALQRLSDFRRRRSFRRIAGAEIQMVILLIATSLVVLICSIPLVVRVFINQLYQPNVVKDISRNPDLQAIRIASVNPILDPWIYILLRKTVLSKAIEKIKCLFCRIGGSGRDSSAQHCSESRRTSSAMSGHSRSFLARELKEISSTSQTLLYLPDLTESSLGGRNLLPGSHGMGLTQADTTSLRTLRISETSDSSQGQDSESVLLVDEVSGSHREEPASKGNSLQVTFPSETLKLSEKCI

[3] = Metabolic stability in human liver microsomes assessed as half life; assay type: ADME, Microsome
[4] = Metabolic stability in human liver microsomes assessed as intrinsic clearance; assay type: ADME, Microsome; conditions: read-out: CLH
[5] = Metabolic stability in human liver microsomes assessed as parent compound remaining at 10 uM measured after 60 mins; assay type: ADME, Microsome; conditions: read-out: Stability
[6] = target: T1, Prostaglandin E2 receptor EP1 subtype (Homo sapiens, UniProt P34995); test: Antagonist activity at human EP1 receptor transfected in CHO/Galpha16 cells preincubated for 15 mins followed by PGE2 addition by calcium flux assay; assay type: functional, cell-based
T1 sequence (P34995 whole entry): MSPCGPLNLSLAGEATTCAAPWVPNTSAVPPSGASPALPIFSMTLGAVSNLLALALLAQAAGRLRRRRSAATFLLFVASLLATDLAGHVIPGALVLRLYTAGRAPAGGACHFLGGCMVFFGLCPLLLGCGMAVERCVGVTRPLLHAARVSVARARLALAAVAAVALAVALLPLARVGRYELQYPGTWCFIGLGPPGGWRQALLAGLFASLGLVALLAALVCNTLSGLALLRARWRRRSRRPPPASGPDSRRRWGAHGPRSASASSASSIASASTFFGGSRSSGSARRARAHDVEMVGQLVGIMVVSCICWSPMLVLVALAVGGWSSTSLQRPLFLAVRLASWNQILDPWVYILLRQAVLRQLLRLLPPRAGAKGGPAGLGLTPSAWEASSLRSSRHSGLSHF

[7] = target: Prostaglandin E2 receptor EP2 subtype (Homo sapiens, UniProt P43116); test: Antagonist activity at human EP2 receptor transfected in CHO/Galpha16 cells preincubated for 15 mins followed by PGE2 addition by calcium flux assay; assay type: functional, cell-based
Chain of Prostaglandin E2 receptor EP2 subtype (P43116 whole entry): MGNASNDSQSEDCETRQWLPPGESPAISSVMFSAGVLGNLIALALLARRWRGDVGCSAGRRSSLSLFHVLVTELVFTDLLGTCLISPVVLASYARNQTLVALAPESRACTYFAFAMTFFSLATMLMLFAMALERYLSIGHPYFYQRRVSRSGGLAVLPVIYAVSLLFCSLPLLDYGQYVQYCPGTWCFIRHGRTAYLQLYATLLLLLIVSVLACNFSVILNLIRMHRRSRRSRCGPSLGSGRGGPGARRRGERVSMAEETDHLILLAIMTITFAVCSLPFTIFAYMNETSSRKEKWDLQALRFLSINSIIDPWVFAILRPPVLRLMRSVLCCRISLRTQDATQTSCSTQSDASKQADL

[8] = target: T2, Prostaglandin E2 receptor EP3 subtype (Homo sapiens, UniProt P43115); test: Antagonist activity at human EP3 receptor transfected in CHO/Galpha16 cells preincubated for 15 mins followed by PGE2 addition by calcium flux assay; assay type: functional, cell-based
T2 sequence (P43115 whole entry): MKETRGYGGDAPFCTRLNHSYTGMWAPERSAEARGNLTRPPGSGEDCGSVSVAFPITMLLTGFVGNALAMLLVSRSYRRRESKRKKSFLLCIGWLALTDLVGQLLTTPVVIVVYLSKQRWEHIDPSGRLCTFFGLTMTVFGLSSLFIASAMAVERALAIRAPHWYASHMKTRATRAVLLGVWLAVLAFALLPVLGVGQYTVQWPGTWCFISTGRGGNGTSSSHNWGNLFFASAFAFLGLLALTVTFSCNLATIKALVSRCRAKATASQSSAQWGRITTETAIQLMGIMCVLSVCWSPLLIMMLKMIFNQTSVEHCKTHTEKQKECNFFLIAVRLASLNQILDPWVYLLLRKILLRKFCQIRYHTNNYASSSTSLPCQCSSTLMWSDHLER

[9] = Metabolic stability in mouse liver microsomes assessed as half life; assay type: ADME, Microsome
[10] = Metabolic stability in mouse liver microsomes assessed as intrinsic clearance; assay type: ADME, Microsome; conditions: read-out: CLH
[11] = Metabolic stability in mouse liver microsomes assessed as parent compound remaining at 10 uM measured after 60 mins; assay type: ADME, Microsome; conditions: read-out: Stability
[12] = system: EMT6; test: Cytotoxicity against mouse EMT6 cells assessed as reduction in cell viability incubated for 72 hrs by CCK-8 assay; conditions: EMT6, 72 h
[13] = system: 3LL cell line; test: Cytotoxicity against mouse 3LL cells assessed as reduction in cell viability incubated for 72 hrs by CCK-8 assay
[14] = target: CYP2C9 (Homo sapiens, UniProt P11712); test: Inhibition of CYP2C9 (unknown origin) at 20 uM; assay type: ADME
Chain of CYP2C9 (P11712 whole entry): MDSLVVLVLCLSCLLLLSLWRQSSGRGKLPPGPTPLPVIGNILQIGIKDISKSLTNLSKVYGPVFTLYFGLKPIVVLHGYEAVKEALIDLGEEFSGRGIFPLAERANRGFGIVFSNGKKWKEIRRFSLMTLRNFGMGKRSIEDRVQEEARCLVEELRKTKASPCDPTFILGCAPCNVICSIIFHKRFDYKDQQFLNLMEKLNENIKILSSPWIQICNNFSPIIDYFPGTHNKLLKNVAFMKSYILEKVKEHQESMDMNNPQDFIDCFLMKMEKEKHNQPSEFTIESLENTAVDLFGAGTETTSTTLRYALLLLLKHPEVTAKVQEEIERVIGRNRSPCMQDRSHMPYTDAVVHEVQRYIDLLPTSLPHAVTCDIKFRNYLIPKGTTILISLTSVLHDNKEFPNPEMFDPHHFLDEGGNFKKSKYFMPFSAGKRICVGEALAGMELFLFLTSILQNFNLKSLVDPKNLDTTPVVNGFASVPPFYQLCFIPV

[15] = target: T3, CYP1A2 (Homo sapiens, UniProt P05177); test: Inhibition of CYP1A2 (unknown origin) at 20 uM; assay type: ADME
T3 sequence (P05177 whole entry): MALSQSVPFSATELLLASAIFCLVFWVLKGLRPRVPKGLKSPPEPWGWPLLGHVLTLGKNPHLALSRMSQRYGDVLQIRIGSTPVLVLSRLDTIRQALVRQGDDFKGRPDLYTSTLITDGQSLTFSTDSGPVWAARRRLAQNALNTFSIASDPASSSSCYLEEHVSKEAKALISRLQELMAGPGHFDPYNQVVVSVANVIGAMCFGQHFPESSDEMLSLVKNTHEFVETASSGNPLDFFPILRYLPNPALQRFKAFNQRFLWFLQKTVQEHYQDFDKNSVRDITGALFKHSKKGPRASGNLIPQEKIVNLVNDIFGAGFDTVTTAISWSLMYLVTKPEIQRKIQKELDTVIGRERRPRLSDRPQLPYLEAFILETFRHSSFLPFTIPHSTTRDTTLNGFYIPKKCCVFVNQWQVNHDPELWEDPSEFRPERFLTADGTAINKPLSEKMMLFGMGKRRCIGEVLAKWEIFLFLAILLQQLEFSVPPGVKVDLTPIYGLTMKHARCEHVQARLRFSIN

[16] = target: T4, CYP2B6 (Homo sapiens, UniProt P20813); test: Inhibition of CYP2B6 (unknown origin) at 20 uM; assay type: ADME
T4 sequence (P20813 whole entry): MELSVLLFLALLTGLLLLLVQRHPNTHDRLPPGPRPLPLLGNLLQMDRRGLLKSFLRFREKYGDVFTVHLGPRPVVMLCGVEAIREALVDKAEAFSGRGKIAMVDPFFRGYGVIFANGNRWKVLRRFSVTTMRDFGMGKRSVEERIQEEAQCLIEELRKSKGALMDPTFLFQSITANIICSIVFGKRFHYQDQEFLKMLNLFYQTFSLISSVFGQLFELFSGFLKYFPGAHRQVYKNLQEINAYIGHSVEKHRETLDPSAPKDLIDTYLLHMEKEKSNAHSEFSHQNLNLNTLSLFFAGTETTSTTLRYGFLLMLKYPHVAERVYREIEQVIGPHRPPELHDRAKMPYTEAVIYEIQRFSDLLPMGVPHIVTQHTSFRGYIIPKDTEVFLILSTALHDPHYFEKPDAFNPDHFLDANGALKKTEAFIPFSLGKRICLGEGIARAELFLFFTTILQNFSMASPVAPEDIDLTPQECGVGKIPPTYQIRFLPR

[17] = target: CYP2D6 (Homo sapiens, UniProt P10635); test: Inhibition of CYP2D6 (unknown origin) at 20 uM; assay type: ADME
Chain of CYP2D6 (P10635 whole entry): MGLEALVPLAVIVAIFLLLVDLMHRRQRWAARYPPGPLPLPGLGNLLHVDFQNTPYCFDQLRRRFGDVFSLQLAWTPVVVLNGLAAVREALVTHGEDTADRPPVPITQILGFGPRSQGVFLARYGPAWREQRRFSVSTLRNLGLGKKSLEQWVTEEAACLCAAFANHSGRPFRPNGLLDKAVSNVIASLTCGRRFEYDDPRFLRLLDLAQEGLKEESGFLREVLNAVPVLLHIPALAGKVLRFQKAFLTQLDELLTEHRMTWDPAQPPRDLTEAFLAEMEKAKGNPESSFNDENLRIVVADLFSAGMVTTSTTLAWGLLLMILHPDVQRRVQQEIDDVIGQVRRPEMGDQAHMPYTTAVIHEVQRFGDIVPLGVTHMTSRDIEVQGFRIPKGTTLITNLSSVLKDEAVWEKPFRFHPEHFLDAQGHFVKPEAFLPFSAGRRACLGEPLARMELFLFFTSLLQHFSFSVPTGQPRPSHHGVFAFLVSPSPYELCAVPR

[18] = target: CYP2E1 (Homo sapiens, UniProt P05181); test: Inhibition of CYP2E1 (unknown origin) at 20 uM; assay type: ADME
Chain of CYP2E1 (P05181 whole entry): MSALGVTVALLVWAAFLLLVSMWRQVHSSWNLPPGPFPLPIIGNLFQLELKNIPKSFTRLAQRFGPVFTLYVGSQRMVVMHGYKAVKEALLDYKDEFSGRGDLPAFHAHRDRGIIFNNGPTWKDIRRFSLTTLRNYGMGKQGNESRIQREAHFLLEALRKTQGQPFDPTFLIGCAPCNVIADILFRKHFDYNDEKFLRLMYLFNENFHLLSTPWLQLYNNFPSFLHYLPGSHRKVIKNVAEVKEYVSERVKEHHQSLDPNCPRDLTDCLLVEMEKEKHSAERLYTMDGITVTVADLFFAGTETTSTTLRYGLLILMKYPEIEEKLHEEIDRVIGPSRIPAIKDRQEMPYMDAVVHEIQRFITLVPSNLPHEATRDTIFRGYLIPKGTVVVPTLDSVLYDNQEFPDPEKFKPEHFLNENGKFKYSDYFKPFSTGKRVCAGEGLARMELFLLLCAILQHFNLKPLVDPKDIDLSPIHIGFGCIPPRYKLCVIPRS

[19] = system: CT26; test: Cytotoxicity against mouse CT26 cells assessed as reduction in cell viability incubated for 72 hrs by CCK-8 assay; conditions: CT26, 72 h
[20] = system: Panc02; test: Cytotoxicity against mouse Panc02 cells assessed as reduction in cell viability incubated for 72 hrs by CCK-8 assay; conditions: Panc02, 72 h
[21] = Cytotoxicity against HEK293 cells assessed as reduction in cell viability incubated for 72 hrs by CCK-8 assay; assay type: toxicity, cell-based; conditions: human

Chain of Prostaglandin E2 receptor EP4 subtype (Homo sapiens, UniProt P35408) (P35408 whole entry): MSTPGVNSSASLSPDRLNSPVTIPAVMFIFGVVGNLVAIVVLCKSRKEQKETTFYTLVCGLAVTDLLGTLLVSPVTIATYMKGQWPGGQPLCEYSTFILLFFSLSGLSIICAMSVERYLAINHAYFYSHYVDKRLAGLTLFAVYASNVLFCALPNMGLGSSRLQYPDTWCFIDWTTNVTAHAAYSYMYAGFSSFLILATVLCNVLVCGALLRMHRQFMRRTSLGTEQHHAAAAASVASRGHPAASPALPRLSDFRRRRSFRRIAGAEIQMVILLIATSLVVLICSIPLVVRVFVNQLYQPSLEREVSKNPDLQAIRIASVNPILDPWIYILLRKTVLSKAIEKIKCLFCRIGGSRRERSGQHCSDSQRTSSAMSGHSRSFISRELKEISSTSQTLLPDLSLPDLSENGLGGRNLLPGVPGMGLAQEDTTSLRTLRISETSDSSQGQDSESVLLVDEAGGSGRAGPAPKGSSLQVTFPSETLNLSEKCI

CCC1CCc2c(sc(CCc3ccc(F)cc3)c2C(=O)N[C@@H](C)c2ccc(C(=O)O)cc2)C1 (some centres undefined)
IC50 [1]: 648 nM

C[C@H](NC(=O)c1c(/N=C/c2cccc(C(F)(F)F)c2)sc2c1CCOC2)c1ccc(C(=O)O)cc1
IC50 [1]: > 1000 nM

C[C@H](NC(=O)c1c(CCc2ccc(F)cc2)sc2c1CCCC2)c1ccc(C(=O)O)cc1
IC50 [1]: 27.8 nM | IC50 [2]: 29 nM | half-life [3]: 14 min | microsomal CLint [4]: 97.6 µL/min/mg | remaining at 1 h, 10 µM [5]: 5%

COc1ccc(Cc2sc3c(c2C(=O)N[C@@H](C)c2ccc(C(=O)O)cc2)CCOC3)cc1F
IC50 [6]: > 10000 nM | IC50 [7]: > 10000 nM | IC50 [8]: > 10000 nM

C[C@H](NC(=O)c1c(Cc2ccc(OC(F)(F)F)c(Cl)c2)sc2c1CCOC2)c1ccc(C(=O)O)cc1
IC50 [1]: 6.6 nM

C[C@H](NC(=O)c1c(CCc2ccc(F)cc2)sc2c1CCC2)c1ccc(C(=O)O)cc1
IC50 [2]: 19.8 nM | IC50 [6]: > 10000 nM | IC50 [7]: > 10000 nM | IC50 [8]: > 10000 nM | half-life [3]: 6.3 min | microsomal CLint [4]: 221 µL/min/mg | remaining at 1 h, 10 µM [5]: 12.2% | half-life [9]: 16.1 min | microsomal CLint [10]: 86.1 µL/min/mg | remaining at 1 h, 10 µM [11]: 6.8%

O=C(O)c1cccc(CNC(=O)c2c(Cc3cccc(C(F)(F)F)c3)sc3c2CCOC3)c1
IC50 [1]: > 1000 nM

C[C@H](NC(=O)c1c(NC(=O)c2ccc(F)cc2)sc2c1CCOC2)c1ccc(C(=O)O)cc1
IC50 [1]: > 1000 nM

C[C@H](NC(=O)c1c(NCc2ccc(C(F)(F)F)cc2)sc2c1CCOC2)c1ccc(C(=O)O)cc1
IC50 [1]: 32.9 nM | IC50 [2]: 66.7 nM | IC50 [6]: > 10000 nM | IC50 [7]: > 10000 nM | IC50 [8]: > 10000 nM

C[C@H](NC(=O)c1c(Cc2ccc(F)cc2)sc2c1CCOC2)c1ccc(C(=O)NN)cc1
IC50 [1]: 74.9 nM

COc1ccc2cc(C#Cc3sc4c(c3C(=O)N[C@@H](C)c3ccc(C(=O)O)cc3)CCOC4)ccc2c1
IC50 [1]: 27.2 nM

COc1cccc(Cc2sc3c(c2C(=O)N[C@@H](C)c2ccc(C(=O)O)cc2)CCOC3)c1
IC50 [1]: 1.9 nM

O=C(NCC1CCC(C(=O)O)CC1)c1c(Cc2ccc(F)cc2)sc2c1CCOC2 (centres undefined)
IC50 [1]: 30.3 nM

C[C@H](NC(=O)c1c(CCc2ccc(F)cc2)sc2c1CCN(C(=O)OC(C)(C)C)C2)c1ccc(C(=O)O)cc1
IC50 [1]: 315 nM

CC(=O)N1CCc2c(sc(CCc3ccc(F)cc3)c2C(=O)N[C@@H](C)c2ccc(C(=O)O)cc2)C1
IC50 [1]: > 1000 nM

C[C@H](NC(=O)c1c(CCc2ccc(F)cc2)sc2c1CCOC2)c1ccc(C(=O)O)cc1
IC50 [12]: > 100000 nM | IC50 [13]: > 100000 nM | inhibition at 20 µM [14]: 58% | IC50 [1]: 19.1 nM | IC50 [2]: 50.1 nM | IC50 [6]: > 10000 nM | IC50 [7]: > 10000 nM | IC50 [8]: > 10000 nM | half-life [3]: 48.6 min | microsomal CLint [4]: 28.5 µL/min/mg | remaining at 1 h, 10 µM [5]: 40.7% | half-life [9]: > 145 min | microsomal CLint [10]: < 9.6 µL/min/mg | remaining at 1 h, 10 µM [11]: 75.7% | inhibition at 20 µM [15]: 88% | inhibition at 20 µM [16]: 76% | inhibition at 20 µM [17]: 76% | inhibition at 20 µM [18]: 39% | IC50 [19]: > 100000 nM | IC50 [20]: > 100000 nM | IC50 at 72 h [21]: > 100000 nM

C[C@H](NC(=O)c1c(Cc2cccc(Cl)c2)sc2c1CCOC2)c1ccc(C(=O)O)cc1
IC50 [1]: 3.2 nM

C[C@H](NC(=O)c1c(C#Cc2ccc(=O)[nH]c2)sc2c1CCOC2)c1ccc(C(=O)O)cc1
IC50 [1]: 642 nM

COc1cccc(C#Cc2sc3c(c2C(=O)N[C@@H](C)c2ccc(C(=O)O)cc2)CCOC3)c1
IC50 [1]: 12.4 nM

C[C@H](NC(=O)c1c(Cc2cccc(F)c2)sc2c1CCOC2)c1ccc(C(=O)O)cc1
IC50 [1]: 5.1 nM

C[C@H](NC(=O)c1c(Cc2ccc(C(C)(C)C)cc2)sc2c1CCOC2)c1ccc(C(=O)O)cc1
IC50 [1]: 9.5 nM

C[C@H](NC(=O)c1c(CCc2ccc(F)cc2)sc2c1CC(C)(C)OC2)c1ccc(C(=O)O)cc1
IC50 [1]: 36.2 nM

O=C(O)c1ccc(C2(NC(=O)c3c(Cc4cccc(C(F)(F)F)c4)sc4c3CCOC4)CC2)cc1
IC50 [1]: 1 nM

CC(C)c1ccc(Cc2sc3c(c2C(=O)N[C@@H](C)c2ccc(C(=O)O)cc2)CCOC3)cc1
IC50 [1]: 2.7 nM

COC(=O)c1ccc([C@H](C)NC(=O)c2c(Cc3ccc(F)cc3)sc3c2CCOC3)cc1
IC50 [1]: > 1000 nM

CON(C)C(=O)c1ccc([C@H](C)NC(=O)c2c(Cc3ccc(F)cc3)sc3c2CCOC3)cc1
IC50 [1]: 187 nM

COc1ccc(Cc2sc3c(c2C(=O)N[C@@H](C)c2ccc(C(=O)O)cc2)CCOC3)cc1
IC50 [1]: 2.1 nM | IC50 [6]: > 10000 nM | IC50 [7]: > 10000 nM | IC50 [8]: > 10000 nM
